Assays:
Uromyces viciae-Fabael = experiment: Uromyces viciae-fabae / field bean / leaf disc preventative (faba-bean rust); type: in vivo, Uromyces viciae-fabae on field bean; settings: foliar, 288 h, 100 ppm in the applied formulation, inoculated two hours after application, assessed 12 days after application, vs untreated control leaf discs, read-out: disease control
Description: (§1) Leaf disks or leaf segments of various plant species are cut from plants grown in a greenhouse. The cut leaf disks or segments are placed in multiwell plates (24-well format) onto water agar. The leaf disks are sprayed with a test solution before (preventative) or after (curative) inoculation. Compounds to be tested are prepared as DMSO solutions (max. 10 mg/ml) which are diluted to the appropriate concentration with 0.025% Tween20 just before spraying. The inoculated leaf disks or segments are incubated under defined conditions (temperature, relative humidity, light, etc.) according to the respective test system. A single evaluation of disease level is carried out 3 to 14 days after inoculation, depending on the pathosystem. Percent disease control relative to the untreated check leaf disks or segments is then calculated.
Field bean leaf discs are placed on water agar in multiwell plates (96-well format) and 10 μl of the formulated test compound diluted in acetone and a spreader pipetted onto the leaf disc. Two hours after application leaf discs are inoculated by spraying a spore suspension on the lower leaf surface. The leaf discs are incubated in a climate cabinet at 22° C. with 18 hour day and 70% relative humidity. The activity of a compound is assessed as percent disease control compared to untreated when an appropriate level of disease damage appears in untreated check leaf disks (12 days after application).
The following compounds at 100 ppm in the applied formulation give at least 80% disease control in this test when compared to untreated control leaf discs under the same conditions, which show extensive disease development.

[1] = test system: Puccinia recondita f. Sp. Tritici; experiment: Puccinia recondita f. sp. tritici / wheat / leaf disc preventative (brown rust); type: in vivo, Puccinia recondita f. sp. tritici on wheat cv. Kanzler; settings: foliar, 200 ppm in the applied formulation, inoculated 1 day after application, assessed 7 to 9 days after application, vs untreated control leaf disks, read-out: disease control
Procedure, shortened: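 Wheat cv. Kanzler leaf segments on agar were sprayed with compound (DMSO stock diluted with 0.025% Tween20) 1 day before inoculation with spores. Segments were held at 19 °C, 75% rh, 12 h light/dark. Percent disease control versus untreated was scored 7–9 days after application.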

[2] = test system: Glomerella Lacenarium (Colletotrichum lacenarium); experiment: Glomerella lagenarium (Colletotrichum lagenarium) liquid culture / cucumber / preventative (anthracnose); type: cell-based; settings: 20 ppm in the applied formulation, liquid culture in PDB, 24° C., inhibition of growth measured photometrically 3 to 4 days after application, vs untreated control, read-out: disease control
Procedure, shortened: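 In liquid culture, cryo-stored conidia in potato dextrose broth were exposed to compound delivered from DMSO solution. Growth inhibition was measured photometrically after 3 to 4 days at 24° C.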

[3] = test system: Puccinia recondita f. Sp. Triticil; experiment: Puccinia recondita f. sp. tritici / wheat / leaf disc curative (brown rust); type: in vivo, Puccinia recondita f. sp. tritici on wheat cv. Kanzler; settings: foliar, 200 ppm in the applied formulation, applied 1 day after inoculation, assessed 6 to 8 days after application, vs untreated control leaf disks, read-out: disease control
Procedure, shortened: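 Spray application came one day after spore inoculation of Kanzler wheat leaf segments kept on agar. Conditions: 19° C, 75% relative humidity, dark before treatment and 12 h light/12 h dark after. Efficacy = % disease control compared with untreated, 6–8 days post-application.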

Phakopsora pachyrhizi = Phakopsora pachyrhizi / soybean / leaf disc preventative (Asian soybean rust); type: in vivo, Phakopsora pachyrhizi on soybean; settings: foliar, 200 ppm in the applied formulation, inoculated one day after application, assessed 12 to 14 days after application, vs untreated control leaf disks, read-out: disease control
Description: as §1
Soybean leaf disks are placed on water agar in multiwell plates (24-well format) and sprayed with the formulated test compound diluted in water. One day after application leaf discs are inoculated by spraying a spore suspension on the lower leaf surface. After an incubation period in a climate cabinet of 24-36 hours in darkness at 20° C. and 75% rh leaf disc are kept at 20° C. with 12 h light/day and 75% rh. The activity of a compound is assessed as percent disease control compared to untreated when an appropriate level of disease damage appears in untreated check leaf disks (12 to 14 days after application).
The following compounds at 200 ppm in the applied formulation give at least 80% disease control in this test when compared to untreated control leaf disks under the same conditions, which show extensive disease development.

Compound	pest or weed control at 100 ppm (Uromyces viciae-Fabael) [%]	pest or weed control at 200 ppm [1] [%]	inhibition of growth at 20 ppm [2] [%]	pest or weed control at 200 ppm [3] [%]	pest or weed control at 200 ppm (Phakopsora pachyrhizi) [%]
CCOc1ccc(C2(C(=O)NCc3ccc(-c4noc(C(F)(F)F)n4)cc3)CC2(F)F)cc1 (stereo not drawn) [Compound 1.35, 1-(4-ethoxyphenyl)-2,2-difluoro-N-[[4-[5-(trifluoromethyl)-1,2,4-oxadiazol-3-yl]phenyl]methyl] cyclopropanecarboxamide]	≥ 80	–	–	–	–
O=C(NCc1ccc(-c2noc(C(F)(F)F)n2)cc1)C1CC1c1ccccc1 (stereo not drawn) [Compound 1.15, 2-phenyl-N-[[4-[5-(trifluoromethyl)-1,2,4-oxadiazol-3-yl]phenyl]methyl] cyclopropanecarboxamide]	≥ 80	≥ 80	≥ 80	–	–
O=C(Cc1ccc(C(F)(F)F)cc1)NCc1ccc(-c2noc(C(F)(F)F)n2)cc1 [Compound 1.34, N-[[4-[5-(trifluoromethyl)-1,2,4-oxadiazol-3-yl]phenyl]methyl]-2-[4-(trifluoromethyl)phenyl] acetamide]	≥ 80	≥ 80	–	–	–
O=C(NCc1ccc(-c2noc(C(F)(F)F)n2)cc1)c1ccc(Cl)cc1Cl [Compound 1.8, 2,4-dichloro-N-[[4-[5-(trifluoromethyl)-1,2,4-oxadiazol-3-yl]phenyl]methyl]benzamide]	≥ 80	–	–	–	–
O=C(NCc1ccc(-c2noc(C(F)(F)F)n2)cc1)c1ccc(Cl)cc1 [Compound 1.36, 4-chloro-N-[[4-[5-(trifluoromethyl)-1,2,4-oxadiazol-3-yl]phenyl]methyl]benzamide]	≥ 80	≥ 80	≥ 80	–	–
O=C(NCc1ccc(-c2noc(C(F)(F)F)n2)cc1)C1(c2ccc(Cl)cc2)CCC1 [Compound 1.13, 1-(4-chlorophenyl)-N-[[4-[5-(trifluoromethyl)-1,2,4-oxadiazol-3-yl]phenyl]methyl] cyclobutanecarboxamide]	≥ 80	≥ 80	–	–	–
CCC1(C(=O)NCc2ccc(-c3noc(C(F)(F)F)n3)cc2)C(C)C1(Cl)Cl (stereo not drawn) [Compound 1.31, 2,2-dichloro-1-ethyl-3-methyl-N-[[4-[5-(trifluoromethyl)-1,2,4-oxadiazol-3-yl]phenyl]methyl] cyclopropanecarboxamide]	≥ 80	–	–	–	–
COc1ccccc1CC(=O)NCc1ccc(-c2noc(C(F)(F)F)n2)cc1 [Compound 1.23, 2-(2-methoxyphenyl)-N-[[4-[5-(trifluoromethyl)-1,2,4-oxadiazol-3-yl]phenyl]methyl]acetamide]	≥ 80	≥ 80	–	≥ 80	–
O=C(NCc1ccc(-c2noc(C(F)(F)F)n2)cc1)C1(c2ccc(Cl)cc2)CC1 [Compound 1.39, 1-(4-chlorophenyl)-N-[[4-[5-(trifluoromethyl)-1,2,4-oxadiazol-3-yl]phenyl]methyl] cyclopropanecarboxamide]	≥ 80	–	–	–	≥ 80
O=C(CCc1ccc(Cl)cc1)NCc1ccc(-c2noc(C(F)(F)F)n2)cc1 [Compound 1.11, 3-(4-chlorophenyl)-N-[[4-[5-(trifluoromethyl)-1,2,4-oxadiazol-3-yl]phenyl]methyl] propanamide]	≥ 80	–	–	–	–
O=C(NCc1ccc(-c2noc(C(F)(F)F)n2)cc1)C1(c2ccccc2)CC1 [Compound 1.14, 1-phenyl-N-[[4-[5-(trifluoromethyl)-1,2,4-oxadiazol-3-yl]phenyl]methyl] cyclopropanecarboxamide]	≥ 80	≥ 80	≥ 80	–	–
O=C(Cc1cccnc1)NCc1ccc(-c2noc(C(F)(F)F)n2)cc1 [Compound 1.17, 2-(3-pyridyl)-N-[[4-[5-(trifluoromethyl)-1,2,4-oxadiazol-3-yl]phenyl]methyl]acetamide]	≥ 80	≥ 80	–	≥ 80	–
O=C(NCc1ccc(-c2noc(C(F)(F)F)n2)cc1)c1cccc(C(F)(F)F)c1 [Compound 1.9, 3-(trifluoromethyl)-N-[[4-[5-(trifluoromethyl)-1,2,4-oxadiazol-3-yl]phenyl]methyl]benzamide]	≥ 80	–	–	–	–
CC1(C(=O)NCc2ccc(-c3noc(C(F)(F)F)n3)cc2)CC1(Cl)Cl (stereo not drawn) [Compound 1.20, 2,2-dichloro-1-methyl-N-[[4-[5-(trifluoromethyl)-1,2,4-oxadiazol-3-yl]phenyl]methyl] cyclopropanecarboxamide]	≥ 80	≥ 80	≥ 80	–	–
COc1cccc(C2(C(=O)NCc3ccc(-c4noc(C(F)(F)F)n4)cc3)CC2)c1 [Compound 1.37, 1-(3-methoxyphenyl)-N-[[4-[5-(trifluoromethyl)-1,2,4-oxadiazol-3-yl]phenyl]methyl] cyclopropanecarboxamide]	≥ 80	–	–	≥ 80	–
O=C(NCc1ccc(-c2noc(C(F)(F)F)n2)cc1)c1ccccc1 [Compound 1.40, N-[[4-[5-(trifluoromethyl)-1,2,4-oxadiazol-3-yl]phenyl]methyl]benzamide]	≥ 80	≥ 80	≥ 80	≥ 80	–
O=C(CC1CCCC1)NCc1ccc(-c2noc(C(F)(F)F)n2)cc1 [Compound 1.7, 2-cyclopentyl-N-[[4-[5-(trifluoromethyl)-1,2,4-oxadiazol-3-yl]phenyl]methyl]acetamide]	–	≥ 80	≥ 80	≥ 80	≥ 80
CC1(C(=O)NCc2ccc(-c3noc(C(F)(F)F)n3)c(F)c2)CC1 [Compound 1.65, N-[[3-fluoro-4-[5-(trifluoromethyl)-1,2,4-oxadiazol-3-yl]phenyl]methyl]-1-methyl-cyclopropanecarboxamide]	–	≥ 80	≥ 80	≥ 80	≥ 80
O=C(NCc1ccc(-c2noc(C(F)(F)F)n2)cc1)C1CCCC1 [Compound 1.16, N-[[4-[5-(trifluoromethyl)-1,2,4-oxadiazol-3-yl]phenyl]methyl] cyclopentanecarboxamide]	–	≥ 80	≥ 80	≥ 80	≥ 80
O=C(NCCc1ccc(-c2noc(C(F)(F)F)n2)cc1)C1CC1(F)F (stereo not drawn) [Compound 1.98, 2,2-difluoro-N-[2-[4-[5-(trifluoromethyl)-1,2,4-oxadiazol-3-yl]phenyl]ethyl] cyclopropanecarboxamide]	–	≥ 80	≥ 80	≥ 80	≥ 80
O=C(Cc1ccccc1Cl)NCc1ccc(-c2noc(C(F)(F)F)n2)cc1 [Compound 1.12, 2-(2-chlorophenyl)-N-[[4-[5-(trifluoromethyl)-1,2,4-oxadiazol-3-yl]phenyl]methyl]acetamide]	≥ 80	≥ 80	–	–	–
CC1(C)CC1C(=O)NCc1ccc(-c2noc(C(F)(F)F)n2)cc1 (stereo not drawn) [Compound 1.28, 2,2-dimethyl-N-[[4-[5-(trifluoromethyl)-1,2,4-oxadiazol-3-yl]phenyl]methyl] cyclopropanecarboxamide]	–	≥ 80	≥ 80	≥ 80	≥ 80

From US20180368410A1, “MICROBIOCIDAL OXADIAZOLE DERIVATIVES” (SYNGENTA PARTICIPATIONS AG, priority 2015, published 2018)
